{"source": "paper PMC4992889", "about": "“The viral capping enzyme nsP1: a novel target for the inhibition of chikungunya virus infection” (Scientific Reports, 2016)", "key": {"[1]": {"tested_on": "CHIKV pseudoparticles (CHIKVpp)", "type": "cell-based, Chikungunya virus"}, "WT CHIKV LS3": {"tested_on": "WT CHIKV LS3", "assay": "microbe, parasite or virus in culture", "type": "cell-based, Chikungunya virus", "conditions": "for EC50: Chikungunya virus, Vero C1008, read-out: EC50 WT LS3 (reverse genetics)"}, "Vero cells": {"tested_on": "Vero cells", "conditions": "cited from earlier work"}, "VEEV nsP1 [2]": {"target": "T1, VEEV nsP1 (Venezuelan equine encephalitis virus, UniProt P36328)", "T1 sequence (P36328 1-535 limits assumed)": "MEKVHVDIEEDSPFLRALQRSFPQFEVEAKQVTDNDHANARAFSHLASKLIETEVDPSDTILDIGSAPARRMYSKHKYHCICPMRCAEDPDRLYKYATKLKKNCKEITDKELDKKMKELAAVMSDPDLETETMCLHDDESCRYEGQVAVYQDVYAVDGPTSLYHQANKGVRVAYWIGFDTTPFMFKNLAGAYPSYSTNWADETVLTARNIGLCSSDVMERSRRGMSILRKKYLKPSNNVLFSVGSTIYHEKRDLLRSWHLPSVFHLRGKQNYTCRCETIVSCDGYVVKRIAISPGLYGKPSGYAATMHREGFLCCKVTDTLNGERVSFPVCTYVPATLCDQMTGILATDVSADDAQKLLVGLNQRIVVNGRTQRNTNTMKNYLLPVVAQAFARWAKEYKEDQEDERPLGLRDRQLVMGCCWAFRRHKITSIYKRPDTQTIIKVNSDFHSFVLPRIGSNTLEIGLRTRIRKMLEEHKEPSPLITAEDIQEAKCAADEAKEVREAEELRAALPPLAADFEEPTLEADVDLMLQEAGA", "assay": "biochemical"}, "[3]": {"tested_on": "CHIKV Venturini (Italy 2008)", "assay": "Viral RNA reduction (qRT-PCR) antiviral assay in Vero E6 cells", "type": "cell-based", "conditions": "Chikungunya virus, Vero C1008, read-out: EC50, in vitro antiviral activity against CHIKV Venturini (Italy 2008)"}, "VEEV nsP1 [4]": {"target": "T1, VEEV nsP1", "assay": "biochemical", "type": "biochemical"}, "in vitro": {"assay": "in vitro", "conditions": "African green monkey"}, "VEEV TC83": {"tested_on": "VEEV TC83", "assay": "microbe, parasite or virus in culture", "type": "cell-based", "conditions": "Venezuelan equine encephalitis virus, Vero C1008, read-out: EC50, in vitro antiviral activity against VEEV TC83"}, "CHIKV strain 899 [5]": {"tested_on": "CHIKV strain 899", "assay": "CPE reduction antiviral assay, CHIKV 899 in Vero A cells (MTS/PMS)", "type": "cell-based", "conditions": "Chikungunya virus"}, "[6]": {"tested_on": "MADTP-314res CHIKV 899 variant", "assay": "microbe, parasite or virus in culture", "type": "cell-based, Chikungunya virus", "conditions": "for EC50: Chikungunya virus, read-out: EC50 MADTP-314res variant 3 (resistance selection)"}, "CHIKV Congo 95 (2011)": {"tested_on": "CHIKV Congo 95 (2011)", "assay": "Viral RNA reduction (qRT-PCR) antiviral assay in Vero E6 cells", "type": "cell-based", "conditions": "Chikungunya virus, Vero C1008, read-out: EC50, in vitro antiviral activity against CHIKV Congo 95 (2011)"}, "CHIKV RNA synthesis": {"tested_on": "CHIKV RNA synthesis", "assay": "Metabolic labeling with 3H-uridine of CHIKV RNA in infected Vero E6 cells", "type": "cell-based, Chikungunya virus", "conditions": "50–250 μM"}, "[7]": {"tested_on": "translation of incoming capped CHIKV RNA", "type": "cell-based, Chikungunya virus", "conditions": "250 μM"}, "[8]": {"target": "CHIKV replication/transcription complexes (RTCs) (Chikungunya virus, UniProt Q8JUX6)", "sequence (Q8JUX6 1864-2474 limits assumed)": "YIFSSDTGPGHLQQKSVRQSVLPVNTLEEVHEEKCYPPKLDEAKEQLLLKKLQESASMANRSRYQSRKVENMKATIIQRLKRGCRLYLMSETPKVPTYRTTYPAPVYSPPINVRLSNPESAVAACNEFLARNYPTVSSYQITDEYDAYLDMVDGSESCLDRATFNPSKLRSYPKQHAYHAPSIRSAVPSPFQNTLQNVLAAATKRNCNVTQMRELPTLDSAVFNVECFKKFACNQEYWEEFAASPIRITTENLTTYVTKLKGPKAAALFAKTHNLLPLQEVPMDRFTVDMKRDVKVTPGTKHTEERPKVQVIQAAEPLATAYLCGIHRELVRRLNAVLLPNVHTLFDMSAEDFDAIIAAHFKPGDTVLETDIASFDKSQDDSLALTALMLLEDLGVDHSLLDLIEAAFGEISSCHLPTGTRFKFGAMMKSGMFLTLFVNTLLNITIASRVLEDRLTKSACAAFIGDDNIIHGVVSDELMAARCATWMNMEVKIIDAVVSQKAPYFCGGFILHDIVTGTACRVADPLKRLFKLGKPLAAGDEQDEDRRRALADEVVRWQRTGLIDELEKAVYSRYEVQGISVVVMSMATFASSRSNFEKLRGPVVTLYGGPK", "sequence (Q8JUX6 1-535 partner limits assumed)": "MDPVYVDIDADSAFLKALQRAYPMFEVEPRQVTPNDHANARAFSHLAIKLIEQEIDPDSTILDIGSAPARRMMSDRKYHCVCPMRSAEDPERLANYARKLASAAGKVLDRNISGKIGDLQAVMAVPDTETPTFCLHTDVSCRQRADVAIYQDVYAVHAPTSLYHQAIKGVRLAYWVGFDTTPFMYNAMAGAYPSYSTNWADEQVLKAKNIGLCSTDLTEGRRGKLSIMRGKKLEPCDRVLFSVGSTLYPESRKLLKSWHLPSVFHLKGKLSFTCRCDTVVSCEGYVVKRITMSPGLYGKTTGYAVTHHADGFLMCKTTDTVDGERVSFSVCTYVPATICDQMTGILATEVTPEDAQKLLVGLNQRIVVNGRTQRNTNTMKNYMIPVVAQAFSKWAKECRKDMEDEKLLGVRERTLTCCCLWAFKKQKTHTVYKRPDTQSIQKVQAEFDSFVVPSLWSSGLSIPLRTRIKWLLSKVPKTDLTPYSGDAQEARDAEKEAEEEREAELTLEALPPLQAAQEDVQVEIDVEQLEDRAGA", "sequence (Q8JUX6 536-1333 partner limits assumed)": "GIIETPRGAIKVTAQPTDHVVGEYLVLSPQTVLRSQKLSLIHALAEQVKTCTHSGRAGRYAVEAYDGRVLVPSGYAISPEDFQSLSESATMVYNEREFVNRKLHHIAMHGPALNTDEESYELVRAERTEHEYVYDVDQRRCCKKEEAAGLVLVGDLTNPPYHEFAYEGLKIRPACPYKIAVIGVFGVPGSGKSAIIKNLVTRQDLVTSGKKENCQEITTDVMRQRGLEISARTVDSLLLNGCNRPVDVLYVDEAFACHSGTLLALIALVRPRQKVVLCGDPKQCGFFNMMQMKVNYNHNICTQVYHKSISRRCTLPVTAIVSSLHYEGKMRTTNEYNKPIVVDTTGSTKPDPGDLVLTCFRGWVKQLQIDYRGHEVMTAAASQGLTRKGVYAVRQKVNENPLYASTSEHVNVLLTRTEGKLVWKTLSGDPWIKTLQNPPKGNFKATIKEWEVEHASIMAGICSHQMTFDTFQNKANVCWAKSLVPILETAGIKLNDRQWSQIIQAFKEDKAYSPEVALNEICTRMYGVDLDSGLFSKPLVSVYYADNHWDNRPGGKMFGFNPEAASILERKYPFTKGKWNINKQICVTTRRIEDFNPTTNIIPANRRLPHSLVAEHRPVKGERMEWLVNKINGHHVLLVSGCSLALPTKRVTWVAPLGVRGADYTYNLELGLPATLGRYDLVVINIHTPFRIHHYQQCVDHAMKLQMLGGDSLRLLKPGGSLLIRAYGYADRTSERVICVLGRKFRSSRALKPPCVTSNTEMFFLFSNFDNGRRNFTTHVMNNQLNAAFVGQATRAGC", "assay": "In vitro RNA synthesis assay with isolated CHIKV replication/transcription complexes (32P-CTP incorporation)", "type": "biochemical", "conditions": "250 μM"}, "CHIKV [9]": {"tested_on": "CHIKV", "assay": "Time-of-addition study, CHIKV RNA reduction", "type": "cell-based, Chikungunya virus", "conditions": "for reduction in CHIKV RNA: added 6 h post infection, assessed at 24 h post infection"}, "CHIKV [10]": {"tested_on": "CHIKV", "conditions": "cited from earlier work"}, "CHIKV [11]": {"tested_on": "CHIKV", "conditions": "cited from earlier work", "remark": "listed apart in the source"}, "CHIKV [12]": {"tested_on": "CHIKV", "conditions": "clinical studies; cited from earlier work"}, "CHIKV strain 899 [13]": {"tested_on": "CHIKV strain 899", "conditions": "cited from earlier work"}, "[14]": {"conditions": "120 h, read-out: EC50, in vitro antiviral activity against CHIKV 899 (lab)"}, "[15]": {"conditions": "read-out: EC50 WT 899 (resistance selection)"}}, "note": "Like-named read-outs stand apart in the source and are kept apart here."}
{"smiles": "CCOC(=O)c1c(CSc2ccccc2)n(C)c2cc(Br)c(O)c(CN(C)C)c12", "note": "[arbidol]", "values": [{"measurement": "entry of CHIKV pseudoparticles into the host cell", "setting": "[1]", "value": "inhibited CHIKVpp entry in a dose-dependent manner"}]}
{"smiles": "CCc1nc2c(nnn2-c2cccc(OC(C)C)c2)c(=O)[nH]1", "note": "[MADTP-372, 5-ethyl-3-(3-isopropoxyphenyl)-3H-[1,2,3]triazolo[4,5-d]-pyrimidin-7(6H)-one]", "values": [{"measurement": "EC50", "setting": "WT CHIKV LS3", "value": "4.9 ± 0.6", "unit": "µM"}, {"measurement": "CC50", "setting": "Vero cells", "value": "> 400", "unit": "µM"}, {"measurement": "IC50", "setting": "VEEV nsP1 [2]", "value": "> 1", "unit": "mM"}, {"measurement": "EC50", "setting": "[3]", "value": "1.4 ± 0.01", "unit": "µM"}, {"measurement": "GT activity of VEEV nsP1 (formation of m7GMP-nsP1 complex)", "setting": "VEEV nsP1 [4]", "value": "inhibited the GT activity of VEEV nsP1 in a concentration-dependent manner"}, {"measurement": "IC50", "setting": "VEEV nsP1 [4]", "value": "10 ± 0.3", "unit": "µM"}, {"measurement": "CC50", "setting": "in vitro", "value": "> 668", "unit": "µM"}, {"measurement": "EC50", "setting": "VEEV TC83", "value": 6.8, "unit": "µM"}, {"measurement": "EC50", "setting": "CHIKV strain 899 [5]; [14]", "value": "2.6 ± 1", "unit": "µM"}, {"measurement": "EC50", "setting": "[6]", "value": "255 ± 16", "unit": "µM"}, {"measurement": "EC50", "setting": "CHIKV Congo 95 (2011)", "value": "750 ± 400", "unit": "nM"}]}
{"smiles": "CC(=O)c1cccc(-n2nnc3c(=O)[nH]c(C)nc32)c1", "note": "[MADTP-314, 3-(3′-acetylphenyl)-5-methyl-3H-[1,2,3]triazolo[4,5-d]pyrimidin-7(6H)-one]", "values": [{"measurement": "fold less sensitive, CHIKV LS3 vs CHIKV 899", "setting": "WT CHIKV LS3", "value": 1.5, "unit": "fold"}, {"measurement": "EC50", "setting": "WT CHIKV LS3", "value": "40 ± 5", "unit": "µM"}, {"measurement": "CHIKV RNA synthesis (3H-uridine incorporation)", "setting": "CHIKV RNA synthesis", "value": "did not inhibit CHIKV RNA synthesis"}, {"measurement": "IC50", "setting": "VEEV nsP1 [2]", "value": "> 1", "unit": "mM"}, {"measurement": "luciferase activity (translation of replication-deficient CHIKV RNA)", "setting": "[7]", "value": "comparable to that in untreated control cells"}, {"measurement": "EC50", "setting": "[3]", "value": "26 ± 2", "unit": "µM"}, {"measurement": "CC50", "setting": "in vitro", "value": "> 743", "unit": "µM"}, {"measurement": "incorporation of 32P-CTP into CHIKV RNA by isolated RTCs", "setting": "[8]", "value": "did not inhibit the incorporation"}, {"measurement": "reduction in CHIKV RNA", "setting": "CHIKV [9]", "value": 1.3, "unit": "log10"}, {"measurement": "EC50", "setting": "VEEV TC83", "value": "> 40", "unit": "µM"}, {"measurement": "EC50", "setting": "CHIKV strain 899 [5]; [14]", "value": "26 ± 11", "unit": "µM"}, {"measurement": "fold less sensitive, MADTP-314-resistant variants vs wild-type", "setting": "[6]", "value": "~ 11 fold"}, {"measurement": "EC50", "setting": "[6]", "value": "283 ± 45", "unit": "µM"}, {"measurement": "EC50", "setting": "CHIKV Congo 95 (2011)", "value": "6400 ± 100", "unit": "nM"}, {"measurement": "entry of CHIKV pseudoparticles into the host cell", "setting": "[1]", "value": "not able to block the entry"}]}
{"smiles": "NC(=O)c1nc(F)c[nH]c1=O", "note": "[T-705, reference compound]", "values": [{"measurement": "reduction in CHIKV RNA", "setting": "CHIKV [9]", "value": 1.0, "unit": "log10"}, {"measurement": "anti-CHIKV activity in vitro", "setting": "CHIKV [10]", "value": "exerts anti-CHIKV activity"}, {"measurement": "anti-CHIKV activity in a mouse model", "setting": "CHIKV [11]", "value": "exerts anti-CHIKV activity"}, {"measurement": "EC50", "setting": "CHIKV strain 899 [5]; [15]", "value": "20 ± 2.7", "unit": "µM"}, {"measurement": "cross-resistance of MADTP-314-resistant variants", "setting": "[6]", "value": "No cross-resistance"}, {"measurement": "EC50", "setting": "[6]", "value": "34 ± 5.7", "unit": "µM"}]}
{"smiles": "CCN(CC)CCCC(C)Nc1ccnc2cc(Cl)ccc12", "note": "(stereo not drawn) [Chloroquine]", "values": [{"measurement": "efficacy in infected patients", "setting": "CHIKV [12]", "value": "failed to prove its efficacy"}, {"measurement": "reduction of CHIKV RNA", "setting": "CHIKV [9]; added 2 h before infection", "value": 2, "unit": "log10"}, {"measurement": "protective activity in time-of-addition", "setting": "CHIKV [9]; added at time points later than 1 h p.i.", "value": "entirely lost its protective activity"}, {"measurement": "effect on CHIKV replication in vitro", "setting": "CHIKV [10]", "value": "dose- and time-dependent inhibitory effect"}, {"measurement": "EC50", "setting": "CHIKV strain 899 [5]; [15]", "value": "18 ± 11", "unit": "µM"}, {"measurement": "cross-resistance of MADTP-314-resistant variants", "setting": "[6]", "value": "No cross-resistance"}, {"measurement": "EC50", "setting": "[6]", "value": "20 ± 4.7", "unit": "µM"}, {"measurement": "entry of CHIKV pseudoparticles into the host cell", "setting": "[1]", "value": "inhibited CHIKVpp entry in a dose-dependent manner"}]}
{"smiles": "CCc1nc2c(nnn2-c2cccc(C(C)=O)c2)c(=O)[nH]1", "note": "[MADTP-393]", "values": [{"measurement": "EC50", "setting": "WT CHIKV LS3", "value": "15 ± 0.8", "unit": "µM"}, {"measurement": "EC50", "setting": "[3]", "value": "8.2 ± 2.2", "unit": "µM"}, {"measurement": "CC50", "setting": "in vitro", "value": 57, "unit": "µM"}, {"measurement": "EC50", "setting": "VEEV TC83", "value": "35 ± 10", "unit": "µM"}, {"measurement": "EC50", "setting": "CHIKV strain 899 [5]; [14]", "value": "18 ± 6.4", "unit": "µM"}, {"measurement": "EC50", "setting": "[6]", "value": "193 ± 14", "unit": "µM"}, {"measurement": "EC50", "setting": "CHIKV Congo 95 (2011)", "value": "1400 ± 300", "unit": "nM"}]}
{"smiles": "CCCOc1ccc(-n2nnc3c(=O)[nH]c(C)nc32)cc1", "note": "[MADTP-346]", "values": [{"measurement": "IC50", "setting": "VEEV nsP1 [2]", "value": "> 1", "unit": "mM"}, {"measurement": "GT activity of VEEV nsP1 (formation of m7GMP-nsP1 complex)", "setting": "VEEV nsP1 [4]", "value": "did not inhibit the GT activity"}, {"measurement": "anti-CHIKV activity in cell culture", "setting": "CHIKV strain 899 [13]", "value": "devoid of anti-CHIKV activity"}]}
